What was measured:
[1] = target: SULT1A3 spin-labeled at Cys 116 (Homo sapiens, UniProt P0DMM9, Q116C); experiment: Initial-rate parameters, spin-labeled SULT1A3 mutant 116
Method: Covalent Tagging of SULT1A3 Cys Constructs. Labeling of the SULT1A3 Cys constructs was performed as described previously (17,18,21). Briefly, 3-maleimido-PROXYL (spin label) or N-cyclohexylmaleimide (diamagnetic control) was added to an enzyme containing solution at 20-fold excess over reactive Cys. Unreacted Cys was monitored using DNTB (17,18,21); reactions were considered complete when >98% of the Cys was labeled. Reaction conditions: SULT1A3 (50 μM, monomer), 3-maleimido-PROXYL or N-cyclohexylmaleimide (1.0 mM), PAP (0.50 mM), KPO4 (50 mM), pH 7.5, 4±2° C. To prepare samples for NMR, reaction mixtures were dialyzed three times against 40 volumes of PAP (0.50 mM), KPO4 (50 mM), pD 7.4, D2O (>95%), 4±2° C.
Initial-Rate Studies. Initial-rate parameters for the labeled or mutant SULT1A3 constructs were determined using a previously described 1-HP assay (25). […] Reactions were monitored via fluorescence change associated with the conversion of 1-HP to 1-HP-S (λex=325 nm, λem=370 nm). Keq for the 1-HP sulfonation reaction is −250. Given the reaction conditions outlined above, ≥99% of 1-HP is converted to 1-HP-S, and ˜0.4% of PAPS is converted to PAP at equilibrium. […] Reaction progress curves were analyzed to obtain initial-rate parameters as described previously (26,27).
Inhibition studies. Inhibition parameters were determined under conditions identical to those described above (see, Initial-Rate Studies) except that [1-HP] was increased to 5.0 μM (˜61×Km) and inhibitor concentration was varied between 0.20-20×Ki. Ki was obtained using a least-squares fit to the following partial inhibition equation (25,28): v=kcat·(Ki+(1/kcat inh)·[I])/(Ki+[I]), where kcat inh is enzyme turnover at saturating substrates and allosteric inhibitor.

[2] = target: SULT1A3 (Homo sapiens, UniProt P0DMM9); experiment: Dopamine sulfonation by SULT1A3-expressing HME cells; format: cell-based; settings: dopamine 100 μM, 24 hours, best-fit titration curve, read-out: EC50, inhibition of dopamine sulfonation
Method: Cells were incubated with 100 μM dopamine and incubation media was sampled for dopamine and dopamine sulfate at the indicated time intervals. The dopamine and dopamine sulfate levels in the SULT1A3 (+) strain are shown as red and blue dots, respectively. Only dopamine (green dots) was detected using the SULT1A3 (−) strain.
HME cells were incubated with dopamine (100 μM) and Compound 12 (at the indicated concentrations) for 24 hours at which time the dopamine (red dots) and dopamine sulfate (blue dots) levels were determined. […] The chromatography was performed using a PFP-HPLC column. […] Further, the data in Table A reveal that Compound 12 is highly specific for the SULT1A3 isoform.
HME cells expressing SULT1A3 were incubated for 24 hours with dopamine (100 μM) and Compound 23 (at the indicated concentrations) at which time the dopamine (red dots) and dopamine sulfate (blue dots) concentrations were determined using the methods associated with FIG. 10B.

[3] = target: T1, SULT2A1 (Homo sapiens, UniProt Q06520); experiment: SULT2A1 inhibition test; format: biochemical; settings: at 50 uM
T1 sequence (Q06520 1-285): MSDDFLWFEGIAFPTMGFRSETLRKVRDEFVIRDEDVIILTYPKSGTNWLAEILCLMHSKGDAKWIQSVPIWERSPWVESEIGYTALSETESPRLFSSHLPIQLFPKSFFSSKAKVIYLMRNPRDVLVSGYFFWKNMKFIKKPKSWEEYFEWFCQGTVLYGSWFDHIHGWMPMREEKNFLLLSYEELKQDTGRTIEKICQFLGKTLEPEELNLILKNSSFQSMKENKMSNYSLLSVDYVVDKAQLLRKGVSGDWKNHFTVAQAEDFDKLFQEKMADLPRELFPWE

SULT1A3 spin-labeled at Cys 116, sequence (P0DMM9 whole entry Q116C): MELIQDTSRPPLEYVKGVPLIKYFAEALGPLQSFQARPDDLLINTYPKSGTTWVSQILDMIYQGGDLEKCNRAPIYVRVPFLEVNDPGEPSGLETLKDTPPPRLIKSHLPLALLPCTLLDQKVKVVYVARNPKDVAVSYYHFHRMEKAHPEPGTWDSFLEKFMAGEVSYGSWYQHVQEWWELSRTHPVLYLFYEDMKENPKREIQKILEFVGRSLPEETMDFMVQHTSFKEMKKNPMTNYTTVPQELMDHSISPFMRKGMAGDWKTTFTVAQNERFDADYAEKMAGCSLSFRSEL
SULT1A3, sequence (P0DMM9 whole entry): as the sequence (P0DMM9 whole entry Q116C) above, with C116Q counted along it

A Ki [1] of 37 nM was found for `CC(C)Cc1ccc2cc(CO)ccc2n1` [Compound 8, (2-Isobutylquinolin-6-yl)methanol] in this work.

With `CC(C)Cc1ccc2cc(CCC(N)=O)ccc2n1` [Compound 12] the EC50 [2] was 250 ± 87 nM and the “inhibition of SULT2A1” value [3] was “no inhibition was detected”.

From patent publication US12291504B2 (University of Pittsburgh—Of the Commonwealth System of …, priority 2018, dated 2025)
